# “Also recorded” adds a separate entry of the source.
# Experiments:
# [1] = system: rat proximal colonic mucosa; test: Transepithelial short circuit current (Isc) across rat proximal colonic mucosa, Ussing chamber; set-up: species or system rat (Sprague–Dawley); conditions: rat proximal colonic mucosa, linaclotide 6 nmol/L and 100 nmol/L, apical; mean ± SEM (n = 4)
# [2] = system: T84 cells; test: cGMP synthesis in T84 cells; assay type: cell-based, human
# [3] = system: C2BBe cells; test: cGMP synthesis in C2BBe cells; assay type: cell-based, human
# [4] = system: cGKII (PKGII); test: VASP Ser239 phosphorylation in T84 cells, Western blot; assay type: cell-based, human; conditions: linaclotide 1 and 3.27 μmol/L, 30 min, 8Br‐cGMP 0.2 and 1 mmol/L positive control
# Description: C2BBe or T84 cells were homogenized in TGH lysis buffer [25 mmol/L HEPES, 10% (vol/vol) glycerol, 1% (vol/vol) Triton‐ × 100, pH 7.4] containing protease inhibitors (10 nmol/L iodoacetamide, 1 mmol/L phenylmethylsulfonyl fluoride (PMSF), 2 μg/mL leupeptin) for 30 min on ice. Homogenates were solubilized, subject to centrifugation at 13,200 g for 15 min at 4°C, and cleared supernatants were recovered. Protein concentration of the supernatant was determined with Coomassie Protein Assay Reagent (Pierce) and samples prepared and analyzed as described (Kravtsov et al. 2016). Quantification of surface‐labeled proteins was performed with Quantity One image analysis software.
# VASP was originally characterized as a substrate for both PKG (cGMP‐dependent kinase) and PKA (cAMP‐dependent kinase). […] To determine linaclotide‐induced activation of cGKII, we determined the phosphorylation of VASP^Ser239 30 min following treatment either with vehicle or linaclotide (1 μmol/L and 3.27 μmol/L; the 3.27 μmol/L concentration is equivalent to the 5 μg dose of linaclotide that was used in vivo in the rat jejunum loop). The membrane permeant cGMP analog, 8 Br‐cGMP (0.2 mmol/L, 1 mmol/L), was used as a positive control.
# [5] = via extracellular cGMP; ref Castro et al. 2013; Silos‐Santiago et al. 2013; Hannig et al. 2014; cited from earlier work
# Excerpt: (§1) While the increase in intracellular cGMP following ligand activation of GC‐C is well established, the efflux of cGMP from enterocytes is not well studied.
# [6] = system: Caco‐2 cell line; conditions: human colonic Caco‐2 cell line; ref Castro et al. 2013; Silos‐Santiago et al. 2013; cited from earlier work
# Excerpt: as §1
# [7] = system: mouse colonic mucosa; conditions: apical and basolateral membrane, ref Silos‐Santiago et al. 2013, Tchernychev et al. 2015; cited from earlier work
# Excerpt: as §1
# [8] = system: rat colonic mucosa; conditions: apical and basolateral membrane, ref Silos‐Santiago et al. 2013, Tchernychev et al. 2015; cited from earlier work
# Excerpt: as §1
# [9] = IBMX 1 mmol/L 10 min, linaclotide 0.001–10 μmol/L 30 min, 37°C, pH 7, cGMP in supernatants by LC/MS/MS, n = 4
# [10] = linaclotide 0.001–10 μmol/L, 30 min, IBMX 1 mmol/L
substance,measurement,setting,value
linaclotide,linaclotide-induced transepithelial ion current (Isc),[1],induced a transepithelial ion current at both concentrations
same,EC80 for cGMP synthesis (approximate),[2],~1000 nM
same,EC100 for cGMP synthesis (approximate),[2],~3 µmol/L
same,EC50,[2]; [9],772 nM
same,cGMP synthesis,[2]; [10],concentration dependently stimulated cGMP synthesis
same,EC80 for cGMP synthesis (approximate),[3],~1000 nM
same,EC100 for cGMP synthesis (approximate),[3],~3 µmol/L
same,EC50,[3]; [9],523 nM
same,cGMP synthesis,[3]; [10],concentration dependently stimulated cGMP synthesis
same,phosphorylation of VASP Ser239,[4],more robust phosphorylation of VASP^Ser239 compared to 8Br‐cGMP; also recorded: higher levels of VASP^Ser239 phosphorylation compared to the lower concentration
same,phosphorylation of VASP Ser239,[4]; listed as Linaclotide,more strongly enhanced phosphorylation of VASP^Ser239 compared to the cGMP analog 8‐Br‐cGMP
same,antinociceptive effect,[5],antinociceptive effects in several models of colonic hypersensitivity
same,cGMP efflux,[6],induce cGMP efflux
same,cGMP efflux,[7],induce cGMP efflux
same,cGMP efflux,[8],induce cGMP efflux

# From publication PMC5471438, “Linaclotide activates guanylate cyclase‐C/cGMP/protein kinase‐II‐dependent trafficking of CFTR in the intestine” (Physiological Reports, 2017)
